In assay [1] the target is T1, G protein (Smg p21), molecular weight of 22,000, purified from bovine brain (Bos taurus, UniProt P62833).
T1 construct: a crude membrane fraction was extracted with sodium cholate from bovine brain; from tissue; host or cells: bovine brain (crude membrane fraction, cholate extract)
T1 sequence (P62833 1-181 limits assumed): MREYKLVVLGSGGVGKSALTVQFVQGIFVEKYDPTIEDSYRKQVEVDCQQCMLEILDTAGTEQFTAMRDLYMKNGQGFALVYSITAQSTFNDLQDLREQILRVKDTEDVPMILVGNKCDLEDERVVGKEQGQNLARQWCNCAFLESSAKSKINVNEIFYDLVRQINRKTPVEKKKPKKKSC
In words: GTP hydrolyzing activity of purified G protein (Smg p21). It is filed as biochemical. An excerpt: (§1) • (a) Crude G protein with molecular weight (relative molecular weight : Mr) of 20,000 to 25,000 was obtained in accordance with the method of Kikuchi, et al. (Journal of the Biological Chemistry, 263, p 2897 - 2904, 1988). Specifically, a crude membrane fraction was extracted with sodium cholate from bovine brain, and the fraction was fractionated on Ultrogel AcA-44 column chromatography to separate and obtain a fraction at the second peak among two peaks showing GTP binding activity. The fraction thus obtained was purified on phenyl Sepharose CL-4B column chromatography and then further fractionated on hydroxyapatite column chromatography to separate and obtain a fraction at the first peak. Then, the first peak fraction was fractionated on Mono Q HR 5/5 column chromatography and the fraction at the first peak was separated and collected to obtain a crude G protein with Mr of 20,000 - 25,000. • (b) The crude G protein obtained in (a) above was subjected to Mono S HR 5/5 column chromatography equilibrated with a buffer solution of 50 mM sodium acetate (pH, 5.0) containing 1 mM EDTA, 1mM dithiothreitol, 5 mM magnesium chloride and 0.6 % CHAPS (3- [(3-cholamidopropyl) dimethylammonio]-1-propane sulfonate). After washing with 5 ml of the same buffer solution, it was eluted out by the same buffer solution (20 ml) with a concentration gradient of sodium chloride (0 - 1.0 M). […]

Assay [2] has as its target T1, G protein (Smg p21), molecular weight of 22,000, purified from bovine brain. The assay is described as follows: GTP binding activity of purified G protein (Smg p21).
Excerpt: as §1

For orientation: Kd means the concentration at which binding is half-saturated. Lower therefore signals higher affinity. With `Nc1nc2c(ncn2[C@@H]2O[C@H](COP(=O)(O)OP(=O)(O)OP(=O)(O)O)[C@@H](O)[C@H]2O)c(=O)[nH]1` [GTP, guanosine-5-triphosphate], in assay [1], the GTP Hydrolyzing Activity (number of turnovers) was determined as 0.005 min⁻¹. The molecule also came in with a Kd in assay [2] (purified G protein (Smg p21) from bovine brain) of 30 ± 6 nM.
For `CCN1C(=O)C=CC1=O` [N-ethylmaleimide], in assay [2] (no concentration stated, presence of dithiothreitol blocks the inhibition), the “Effect of N-ethylmaleimide on GTP Binding Activity” value is “inhibited”.

These data come from patent publication EP0346187B1, “Novel GTP binding protein and method for production thereof” (MITSUBISHI KASEI CORPORATION, priority 1988, dated 1989).
